Counter-ions that a name gives are not always drawn.
Target: DDR1 kinase (Homo sapiens, UniProt Q08345)
Experiment: Evaluation of DDR1 kinase inhibition (LANCE Ultra TR-FRET kinase assay)
Format: biochemical
Design: purchased Carna Biosciences 08-113
Details: DDR1 protein 0.5 nM, LANCE Ultra ULight-poly GAT substrate, 2 hours at room temperature, duplicate; read-out: DDR-1 IC50

DDR1 kinase, sequence (Q08345 19-876 isoform Q08345-2 limits assumed): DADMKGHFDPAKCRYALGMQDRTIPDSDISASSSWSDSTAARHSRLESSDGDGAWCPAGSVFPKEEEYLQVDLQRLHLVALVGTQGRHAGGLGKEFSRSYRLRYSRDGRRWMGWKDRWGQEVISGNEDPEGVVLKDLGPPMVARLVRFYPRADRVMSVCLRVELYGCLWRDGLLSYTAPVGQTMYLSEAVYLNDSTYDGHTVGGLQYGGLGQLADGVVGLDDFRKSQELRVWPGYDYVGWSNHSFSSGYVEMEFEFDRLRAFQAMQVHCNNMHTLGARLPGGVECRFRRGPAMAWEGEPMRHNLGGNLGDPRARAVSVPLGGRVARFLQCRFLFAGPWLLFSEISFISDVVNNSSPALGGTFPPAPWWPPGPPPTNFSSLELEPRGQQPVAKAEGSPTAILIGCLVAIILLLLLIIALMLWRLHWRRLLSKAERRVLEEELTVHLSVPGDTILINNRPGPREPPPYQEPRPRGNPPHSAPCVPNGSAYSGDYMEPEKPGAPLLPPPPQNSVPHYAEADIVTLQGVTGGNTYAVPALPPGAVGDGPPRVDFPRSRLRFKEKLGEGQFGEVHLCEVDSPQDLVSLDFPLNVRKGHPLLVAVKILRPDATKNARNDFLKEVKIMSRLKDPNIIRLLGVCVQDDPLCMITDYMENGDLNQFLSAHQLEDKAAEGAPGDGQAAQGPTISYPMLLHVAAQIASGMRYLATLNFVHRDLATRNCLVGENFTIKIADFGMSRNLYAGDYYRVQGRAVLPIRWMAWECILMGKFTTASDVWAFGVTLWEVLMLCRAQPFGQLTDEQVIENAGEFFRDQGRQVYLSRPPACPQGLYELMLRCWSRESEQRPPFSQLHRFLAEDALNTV

| Structure (SMILES) | IC50 [nM] |
| --- | --- |
| CC(C(=O)N1CCC[C@H]1C(F)(F)F)n1nc(C2CN(C(=O)c3ccnc(N)c3)C2)c2c(F)cc(F)cc21 (stereo partly drawn) [Compound E-103, 2-{3-[1-(2-aminopyridine-4-carbonyl)azetidin-3-yl]-4,6-difluoro-1H-indazol-1-yl}-1-[(2S)-2-(trifluoromethyl)pyrrolidin-1-yl}propane-1-one hydrochloride] | 14 |
| Cc1noc(Cn2nc(C3CN(C(=O)c4ccnc(N)c4)C3)c3c(F)cccc32)n1 [Compound E-109, 4-(3-{4-fluoro-1-[(3-methyl-1,2,4-oxadiazol-5-yl)methyl]-1H-indazol-3-yl}azetidine-1-carbonyl)pyridin-2-amine] | 210 |
| Nc1cc(C(=O)N2CC(c3nn(Cc4ccccc4C(F)(F)F)c4cccc(F)c34)C2)ccn1 [Compound E-114, 4-[3-(4-fluoro-1-{[2-(trifluoromethyl)phenyllmethyl}-1H-indazol-3-yl)azetidine-1-carbonyl]pyridin-2-amine hydrochloride] | 56 |
| Nc1cc(C(=O)N2CC(c3nn(Cc4noc(-c5cccc(C(F)(F)F)c5)n4)c4cccc(F)c34)C2)ccn1 [Compound E-117, 4-{3-[4-fluoro-1-({5-[3-(trifluoromethyl)phenyl])-1,2,4-oxadiazol-3-ylimethyl)-1H-indazol-3-yl]azetidine-1-carbonyl}pyridin-2-amine] | 56 |
| Cc1nc(N)sc1C(=O)N1CCC(c2nn(CC(=O)N3CCC[C@H]3C(F)(F)F)c3cccc(F)c23)CC1 [Compound E-119, 2-{3-[1-(2-amino-4-methyl-1,3-thiazole-5-carbonyl)piperidin-4-yl]-4-fluoro-1H-indazol-1-yl}·1-[(2S)-2-(trifluoromethyl)pyrrolidin-1-yl]ethan-1-one] | 4.4 |
| Nc1cc(C(=O)N2CC(c3nn(CC(=O)N4CCC[C@H]4C(F)(F)F)c4cccnc34)C2)ccn1 [Compound E-120] | 60 |
| Cc1nc(N)sc1C(=O)N1CC(c2nn(CC(=O)N3CCC[C@H]3C(F)(F)F)c3cccnc23)C1 [Compound E-122] | 140 |
| Nc1cc(C(=O)N2CC(c3nn(CC(=O)N4CCOC[C@H]4C(F)(F)F)c4cc(F)cc(F)c34)C2)ccn1 [Compound E-123, 2-{3-[1-(2-aminopyridine-4-carbonyl)azetidin-3-yl]-4,6-difluoro-1H-indazol-1-yl}-1-[(3S)-3-(trifluoromethyl)morpholin-4-yl]ethan-1-one] | 8.8 |
| CC1(C)CCCN1C(=O)Cn1nc(C2CN(C(=O)c3ccnc(N)c3)C2)c2c(F)cc(F)cc21 [Compound E-127, 2-{3-[1-(2-aminopyridine-4-carbonyl)azetidin-3-yl]-4,6-difluoro-1H-indazol-1-yl}-1-(2,2-dimethylpyrrolidin-1-yl)ethan-1-one] | 11 |
| Nc1cc(C(=O)N2CC(c3nn(Cc4nnc(C(F)(F)F)o4)c4cccc(F)c34)C2)ccn1 [Compound E-128, 4-[3-(4-fluoro-1-{[5-(trifluoromethyl)-1,3,4-oxadiazol-2-yl]methyl}-1H-indazol-3-yl)azetidine-1-carbonyl}pyridin-2-amine] | 180 |
| COc1cnccc1C(=O)N1CC(c2nn(CC(=O)N3CCC[C@H]3C(F)(F)F)c3cc(F)cc(F)c23)C1 [Compound E-133, 2-{4,6-difluoro-3-[1-(3-methoxypyridine-4-carbonyl)azetidin-3-yl)-1H-indazol-1-yl}-1-[(28)-2-(trifluoromethyl)pyrrolidin-1-yl]ethan-1-one] | 23 |
| Nc1cc(C(=O)N2CCC(c3nn(Cc4ccc(C(F)(F)F)nc4)c4cccc(F)c34)CC2)ccn1 [Compound E-134, 4-[4-(4-fluoro-1-([6-(trifluoromethyl)pyridin-3-yl]methyl)-1H-indazol-3-yl)piperidine-1-carbonyl]pyridin-2-amine] | 110 |
| Nc1cc(C(=O)N2CC(c3nn(Cc4noc(C5CCOCC5)n4)c4cccc(F)c34)C2)ccn1 [Compound E-137] | 34 |
| Nc1cc(C(=O)N2CC(c3nn(Cc4nc(-c5ccncc5)no4)c4cccc(F)c34)C2)ccn1 [Compound E-138, 4-[3-(4-fluoro-1-{(S-(pyridin-4-yl)-1,2,4-oxadiazol-5-yl]methyl}-1H-indazol-3-yl)azetidine-1-carbonyl]pyridin-2-amine] | 50 |
| O=C(c1ccc2[nH]ncc2c1)N1CC(c2nn(CC(=O)N3CCC[C@H]3C(F)(F)F)c3cc(F)cc(F)c23)C1 [Compound E-140, 2-{4,6-difluoro-3-[1-(1H-indazole-5-carbonyl)azetidin-3-yl]-1H-indazol-1-yl}-1-[(28)-2-(trifluoromethyl)pyrrolidin-1-yl]ethan-1-one] | 0.8 |
| O=C(c1ccc2[nH]ncc2n1)N1CC(c2nn(CC(=O)N3CCC[C@H]3C(F)(F)F)c3cc(F)cc(F)c23)C1 [Compound E-141] | 5 |
| O=C(c1ccncc1F)N1CC(c2nn(CC(=O)N3CCC[C@H]3C(F)(F)F)c3cc(F)cc(F)c23)C1 [Compound E-142, 2-{4,6-difluoro-3-[1-(3-fluoropyridine-4-carbonyl)azetidin-3-yl]-1H-indazol-1-yl]-1-[(2S)-2-(trifluoromethyl)pyrrolidin-1-yl]ethan-1-one] | 7.9 |

| Structure (SMILES) | IC50 [nM] |
| --- | --- |
| O=C(c1ccncc1Cl)N1CC(c2nn(CC(=O)N3CCC[C@H]3C(F)(F)F)c3cc(F)cc(F)c23)C1 [Compound E-143, 2-{3-[1-(3-chloropyridine-4-carbonyl)azetidin-3-yl]-4,6-difluoro-1H-indazol-1-yl}-1-[(28)-2-(trifluoromethyl)pyrrolidin-1-yl]ethan-1-one] | 4.1 |
| Nc1cc(C(=O)N2CC(c3nn(CC(=O)N4CCC[C@H]4C(F)(F)F)c4ccc(F)c(Cl)c34)C2)ccn1 [Compound E-144, 2-{3-[1-(2-aminopyridine-4-carbonyl)azetidin-3-yl]-4-chloro-5-fluoro-1H-indazol-1-yl}-1-[(2S)-2-(trifluoromethyl)pyrrolidin-1-yl]ethan-1-one] | 1.4 |
| Nc1cc(C(=O)N2CC(c3nn(Cc4noc(C5(C(F)(F)F)CCC5)n4)c4cccc(F)c34)C2)ccn1 [Compound E-146, 4-{3-[4-fluoro-1-({5-[1-(trifluoromethyl)cyclobutyl]-1,2,4-oxadiazol-3-yl}methyl)-1H-indazol-3-yl]azetidine-1-carbonyl}pyridin-2-amine hydrochloride] | 0.4 |
| Nc1cc(C(=O)N2CC(c3nn(Cc4noc(C5(C(F)(F)F)CC5)n4)c4cccc(F)c34)C2)ccn1 [Compound E-147] | 0.3 |
| Nc1cc(C(=O)N2CC(c3nn(Cc4noc(-c5ccccc5F)n4)c4cccc(F)c34)C2)ccn1 [Compound E-148, 4-[3-(4-fluoro-1-i[5-(2-fluorophenyl)-1,2,4-oxadiazol-3-yl]methyl}-1H-indazol-3-yl)azetidine-1-carbonyllpyridin-2-amine] | 1.9 |
| Nc1cc(C(=O)N2CC(c3nn(Cc4ccc(C(F)(F)F)cn4)c4cncc(F)c34)C2)ccn1 [Compound E-150] | 350 |
| Nc1cc(C(=O)N2CC(c3nn(Cc4ccc(C(F)(F)F)cc4)c4cncc(F)c34)C2)ccn1 [Compound E-151, 4-[3-(4-fluoro-1-{[4-(trifluromethyl)phenyl]methyl}-1H-pyrazolo[3,4-c]pyridin-3-yl)azetidine-1-carbonyl]pyridin-2-amine] | 160 |
| Nc1cc(C(=O)N2CC(c3nn(CC#Cc4ccccc4)c4cc(F)cc(F)c34)C2)ccn1 [Compound E-152, 4-{3-[4,6-difluoro-1-(3-phenylprop-2-yn-1-yl)-1H-indazol-3-yl]azetidine-1-carbonyl)pyridin-2-amine] | 90 |
| Nc1cc(C(=O)N2CC(c3nn(Cc4noc(-c5ccc(F)cn5)n4)c4cccc(F)c34)C2)ccn1 [Compound E-153, 4-{3-(4-fluoro-1-{[5-(5-fluoropyridin-2-yl)-1,2,4-oxadiazol-3-yl]methyl}-1H-indazol-3-yl)azetidine-1-carbonyl]pyridin-2-amine] | 140 |
| Cc1ccc(-c2nc(Cn3nc(C4CN(C(=O)c5ccnc(N)c5)C4)c4c(F)cccc43)no2)nn1 [Compound E-154, 4-[3-(4-fluoro-1-{[5-(6-methylpyridazin-3-yl)-1,2.4-oxadiazol-3-yl}methyl}-1H-indazol-3-yl)azetidine-1-carbony1]pyridin-2-amine] | 270 |
| Nc1cc(C(=O)N2CC(c3nn(CC(=O)N4CCC[C@H]4C(F)(F)F)c4cc(F)cc(F)c34)C2)c(F)cn1 [Compound E-155] | 2.4 |
| Nc1cc(C(=O)N2CC(c3nn(CC#CC4CC4)c4cc(F)cc(F)c34)C2)ccn1 [Compound E-156] | 12 |
| Nc1cc(C(=O)N2CC(c3nn(CC4CN(c5ccccc5)C4)c4cc(F)cc(F)c34)C2)ccn1 [Compound E-157, 4-(3-{4,6-difluoro-1-[(1-phenylazetidin-3-yl)methyl)-1H-indazol-3-yl}azetidine-1-carbonyl)pyridin-2-amine] | 350 |
| Nc1cc(C(=O)N2CC(c3nn(CC(=O)N4CCCc5ccccc54)c4cc(F)cc(F)c34)C2)ccn1 [Compound E-158, 2-{3-[1-(2-aminopyridine-4-carbonyl)azetidin-3-yl]-4,6-difluoro-1H-indazol-1-yl}-1-(1,2,3,4-tetrahydroquinolin-1-yl)ethan-1-one] | 0.6 |
| Nc1cc(C(=O)N2CC(c3nn(CC(=O)N4CCOc5ccccc54)c4cc(F)cc(F)c34)C2)ccn1 [Compound E-159, 2-{3-{1-(2-aminopyridine-4-carbonyl)azetidin-3-yl]-4,6-difluoro-1H-indazol-1-yl]-1-(3,4-dihydro-2H-1,4-benzoxazin-4-yl)ethan-1-one] | 1.2 |
| Nc1cc(C(=O)N2CC(c3nn(Cc4noc(-c5ccccc5F)n4)c4cncc(F)c34)C2)ccn1 [Compound E-160, 4-[3-(4-fluoro-1-{[5-(2-fluorophenyl)-1,2,4-oxadiazol-3-yl]methyl}-1H-pyrazolo[3,4-c]pyridin-3-yl)azetidine-1-carbonyl]pyridin-2-amine] | 140 |
| Nc1cc(C(=O)N2CC(c3nn(CC(=O)N4CCc5ccc(Br)cc54)c4cc(F)cc(F)c34)C2)ccn1 [Compound E-161] | 0.3 |

From EP4624465A1, “COMPOUND SERVING AS DDR1 KINASE INHIBITOR, AND MEDICINE” (Nippon Shinyaku Co., Ltd., priority 2022, dated 2024)
